In ChEMBL document CHEMBL1157463, “Interaction of methimazole with I2: X-ray crystal structure of the charge transfer complex methimazole-I2. implications for the mechanism of action of methimazole-based antithyroid drugs” (J Med Chem, 2008):

Assay: Antioxidant activity assessed as inhibition of lactoperoxidase-catalyzed oxidation of 2,2'-azinobis([…])
Type: functional

Row | Compound | IC50 [µM]
1 | Cn1cc[nH][c+]1SS[c+]1[nH]ccn1C.[O-][Cl+3]([O-])([O-])[O-].[O-][Cl+3]([O-])([O-])[O-] | 1.4
2 | Cn1ccnc1S [METHIMAZOLE] | 5.6
